For the experiment, the target named is T1, neuropeptide Y Y1 receptor (Y1R) (Homo sapiens, UniProt P25929).
T1 construct: gene NPY1R
T1 sequence (P25929 1-384): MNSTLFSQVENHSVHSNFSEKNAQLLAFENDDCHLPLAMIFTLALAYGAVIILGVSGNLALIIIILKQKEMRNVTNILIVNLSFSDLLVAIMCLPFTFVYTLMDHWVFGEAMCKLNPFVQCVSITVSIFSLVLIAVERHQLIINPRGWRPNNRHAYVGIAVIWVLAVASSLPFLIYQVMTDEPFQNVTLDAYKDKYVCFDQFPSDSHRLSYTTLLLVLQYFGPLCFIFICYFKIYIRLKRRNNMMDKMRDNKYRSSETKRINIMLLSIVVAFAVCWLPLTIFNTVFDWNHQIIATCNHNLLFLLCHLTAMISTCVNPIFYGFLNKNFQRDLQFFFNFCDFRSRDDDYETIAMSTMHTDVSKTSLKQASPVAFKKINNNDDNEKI
In words: radioligand saturation binding on whole MCF-7 (L) cells. Format: cell-based.

Our source for the Kd values is PMC3517602 (PLoS ONE, 2012).

A word on the Kd: it is the concentration at which binding is half-saturated. Compound `CCC(=O)/N=C(/N)NCCC[C@@H](NC(=O)C(c1ccccc1)c1ccccc1)C(=O)NCc1ccc(O)cc1` [[^3H]-UR-MK114] yielded a Kd of 5 nM. In other words, the single-digit nanomolar range.
